In patent publication US9849140B2, “Topical compositions comprising bimatoprost and methods for stimulating hair growth therewith” (Allergan, Inc., priority 2009, dated 2017):

Legend:
[1] = tested on: men with mild to moderate androgenic alopecia (AGA); assay: Phase 2 multicenter trial, scalp hair growth efficacy (DIA: TAHC, TAHW, TAHD; SSA, IGA, GPR); assay type: in vivo, human
Protocol: (§1) In a phase 2 multicenter trial, men 18-49 years of age with mild to moderate androgenic alopecia (AGA) were randomized in a 1:1:1:1:1 ratio to receive in a double-blind manner bimatoprost (BIM) 0.3%, 0.1%, 0.03%, or vehicle applied once daily, or open label over-the-counter minoxidil 5% solution (MIN) applied twice daily to the vertex area of the scalp for 6 months. Subjects were evaluated every 2 months during treatment and at 2 months after completing treatment. The BIM formulations used in this study were as described in Table 3 above.
The following assessments were made with digital image analysis (DIA; macrophotographs of a prespecified 1-cm^2 circular area at the anterior leading edge of the vertex thinning area of the scalp identified by microdot tattoo) using customized validated software: Target Area Hair Count (TAHC) measured in terminal hairs/cm^2; Target Area Hair Width (TAHW) measured in mm/cm^2; and, Target Area Hair Darkness (TAHD) measured in intensity units;
Co-primary efficacy endpoints measured included the change from baseline in TAHC and the SSA of change in scalp hair growth. Secondary efficacy endpoints included changes from baseline in TAHW and TAHD, and IGA/GPR of changes in scalp hair growth. […]

[2] = tested on: men with mild to moderate androgenic alopecia (AGA); assay: Phase 2 multicenter trial, safety (treatment-related adverse events, clinical laboratory, vital signs, ECGs, physical examinations); assay type: in vivo, human
Protocol: as §1
Safety measures included adverse event monitoring, local tolerability assessment, clinical laboratory testing, vital signs, 12-lead electrocardiograms (ECGs), and physical examinations.
Percent changes from baseline in TAHC, TAHW, and TAHD were analyzed using the Wilcoxon rank-sum test. Frequency distributions of SSA, IGA, and GPR scores were analyzed using a Cochran-Mantel-Haenszel test stratified for age group (18-34 vs 35-49 years), and missing data were imputed to month 6 using a last-observation-carried-forward approach. Safety measures were evaluated in all subjects who received study medication; among-group and pairwise comparisons of the incidence of adverse events were performed using a chi-square or Fisher's exact test

CCNC(=O)CCC/C=C\C[C@@H]1[C@@H](/C=C/[C@@H](O)CCc2ccccc2)[C@H](O)C[C@@H]1O [bimatoprost, cyclopentane N-ethyl heptanamide-5-cis-2-(3α-hydroxy-5-phenyl-1-trans-pentenyl)-3,5-dihy-droxy, [1α,2β,3α,5α]]
distribution of SSA (Subject Self Assessment) scores versus vehicle, in words ([1]; month 6): did not differ
changes in TAHC and TAHW versus vehicle, in words ([1]; two months after stopping treatment): no longer significantly different from vehicle
incidence of treatment-related adverse events, in words ([2]; compared with vehicle and minoxidil): slightly higher with bimatoprost compared with vehicle, but lower than the rate with minoxidil
changes in clinical laboratory parameters, vital signs, ECGs, or physical examinations, in words ([2]; human, in vivo): no clinically meaningful or dose-dependent changes
safety and tolerability profile, in words ([2]; human, in vivo): consistent with that of an established topical treatment for scalp hair growth
